# Patent US3931204A, “Thieno[3,4-d]pyrimidines” (U.C.B. Societe Anonyme, priority 1974, dated 1976)
# Key:
# [1] = system: rabbit, in morphinic respiratory depression; assay: Respiratory analeptic action in morphinic respiratory depression; assay type: in vivo; settings: 2,5 mg of free base/kg animal body weight
# [2] = Intravenous lethal dose (LD50) in rat; settings: in vivo, solvent: A propylene glycol + water, B polyethylene glycol + ethanol, C, F, G water, D glycofurol
# Procedure: (§1) The intravenously administered lethal doses (LD50) were determined in rat and mouse. For compounds A to G mentioned above, the recorded results, expressed in mg of compound per kg of animal body weight, are given in the following Table: […]
# [3] = system: dog anaesthetized with nembutal; assay: Blood flow in thoracic aorta (cardiac output), vertebral artery (cerebral flow) and femoral artery (musculocutaneous peripheral flow), electromagnetic flow measurement, anaesthetized dog; assay type: in vivo; settings: 2 mg/kg animal body weight, intravenous; for increase in the femoral flow: femoral artery; for increase in the cardiac flow: thoracic aorta; for increase in the cerebral flow (in words): vertebral artery; for duration of the increase of the cerebral circulation: increase by 30 to 40%
# Procedure: The measurements were carried out by means of periarterial probes according to the principle of electromagnetic flow measurement. The general experimental conditions have already been described in the Literature (D. WELLENS and E. WAUTERS, Arch.Int.Pharmacod.171/1,(1968), 246). The medicament was administered by intravenous route.
# The administration of compounds according to the invention, namely the 2-chloro-4-isopropylamino-thieno[3,4-d]pyrimidine monohydrochloride (compound A), the 2-chloro-4-morpholino-thieno[3,4-d]pyrimidine monohydrochloride (compound B), the 2-chloro-4-(3-methyl-morpholino)-thieno[3,4-d]pyrimidine monohydrochloride (compound C), the 2-n-propylamino-4-isopropylamino-thieno[3,4-d]-pyrimidine monomaleate (compound D) and the 2-n-propyl-4-isopropylamino-thieno[3,4-d]pyrimidine mono-maleate (compound E) brought about the following effects under these conditions: […]
# [4] = Intravenous lethal dose (LD50) in mouse; settings: in vivo, solvent: C water, D glycofurol, E polyethylene glycol
# Procedure: as §1
SMILES,respiratory analeptic effect relative to diethylnicotinamide [1],LD50 [2],increase in the femoral flow [3],increase in the cardiac flow [3],increase in the cerebral flow (in words) [3],LD50 [4],duration of the increase of the cerebral circulation [3]
"CCOc1nc(NC(C)C)c2cscc2n1.Cl [F, 2-ethoxy-4-isopropylamino-thieno[3,4-d]pyrimidine monohydrochloride]",equivalent to that produced by a six times higher dose of diethylnicotinamide,49 mg/kg,–,–,–,–,–
"CCCNc1nc(OCC)nc2cscc12.Cl [G, 2-ethoxy-4-n-propylamino-thieno[3,4-d]pyrimidine monohydrochloride]",equivalent to that produced by a six times higher dose of diethylnicotinamide,42 mg/kg,–,–,–,–,–
"Cl.Clc1nc(N2CCOCC2)c2cscc2n1 [B, 2-chloro-4-morpholino-thieno[3,4-d]pyrimidine monohydrochloride]",–,130 mg/kg,appreciable increase,appreciable increase,appreciable increase,–,–
"CCCc1nc(NC(C)C)c2cscc2n1.O=C(O)/C=C\C(=O)O [E, 2-n-propyl-4-isopropylamino-thieno[3,4-d]pyrimidine mono-maleate]",–,–,appreciable increase,appreciable increase,appreciable increase,23 mg/kg,–
"CCCNc1nc(NC(C)C)c2cscc2n1.O=C(O)/C=C\C(=O)O [D, 2-n-propylamino-4-isopropylamino-thieno[3,4-d]-pyrimidine monomaleate]",–,25.5 mg/kg,marked increase,appreciable increase,marked increase,21 mg/kg,at least 40 minutes
"CC1COCCN1c1nc(Cl)nc2cscc12.Cl (stereo not shown) [C, 2-chloro-4-(3-methyl-morpholino)-thieno[3,4-d]pyrimidine monohydrochloride]",–,109 mg/kg,marked increase,appreciable increase,marked increase,117 mg/kg,at least 40 minutes
"CC(C)Nc1nc(Cl)nc2cscc12.Cl [A, 2-chloro-4-isopropylamino-thieno[3,4-d]pyrimidine monohydrochloride]",–,65 mg/kg,appreciable increase,appreciable increase,appreciable increase,–,–
